What all share (assay): NCI-60 cell line screen, 48 h
For experiment [1], the system named is NCI-H522.
Experiment [2] concerns UACC-62.
For experiment [3], the system named is SNB-19.
Experiment [4] deals with HL-60.
For experiment [5], the system named is HCC 2998.
For experiment [6], the system named is NCI/ADR-RES.
Experiment [7] relates to U-251.
Experiment [8] deals with NCI-H226.
Experiment [9] relates to 786-0.
Experiment [10] concerns RXF 393.
Experiment [11] concerns LXFL 529.
Experiment [12] has as its system IGROV-1.
Experiment [13] deals with A498.
The subject of experiment [14] is NCI-H23.
For experiment [15], the system named is NCI-H460.
The subject of experiment [16] is LOX IMVI.
The test system of experiment [17] is HT-29.
Experiment [18] deals with OVCAR-4.
Experiment [19] relates to SN12C.
The test system of experiment [20] is MOLT-4.

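Assay format: 96-well plates, 48-hour exposure. GI50 is the concentration that inhibits growth by half.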 Active and inactive are the calls of the source. No stated cut-off is given here; in the data, active = GI50 up to about 1.1 µM and inactive = higher.

As for `COc1cccc2c1C(=O)c1c(O)c3c(c(O)c1C2=O)C[C@@](O)(C(C)=O)C[C@@H]3OC1CC(O)C(O)C(C)O1` (stereo not given in full), the GI50 in experiment [1] was 1820 nM (inactive); in experiment [2], 1040 nM (active); in [3], 1090 nM (active); in experiment [4] it was 50.1 nM (active); in experiment [5], 918 nM (active); in [6] it was 360 nM (active). Moreover, the GI50 in experiment [7] was 359 nM (active); in experiment [8], 289 nM (active); in experiment [9], 1570 nM (inactive); in [10], 1170 nM (inactive); in experiment [11], 2790 nM (inactive); in experiment [12], 3050 nM (inactive). Further, the GI50 in experiment [13] is 3050 nM (inactive); in [14], 942 nM (active); in [15], 124 nM (active); in experiment [16], 590 nM (active); in experiment [17] it was 1410 nM (inactive); in experiment [18], 3810 nM (inactive). The GI50 in experiment [19] is 675 nM (active); in [20], 20.8 nM (active).
